Results: publication PMC7214591, “Biotransformation of 5-hydroxymethylfurfural into 2,5-dihydroxymethylfuran by Ganoderma sessile and toxicological assessment of both compounds” (AMB Express, 2020)

Key:
[1] = Cytotoxicity test, MTT, 24 h; type: cell-based; conditions: human
Description: (§1) Cell lines HCT-8 (3111C0001CCC000104) and A549 (3131C0001000700150) were obtained from National Infrastructure of Cell Line Resource (Beijing, China). SGC-7901 cell line was purchased from Suer Shengwu (Shanghai, China). All cells maintained in a humidified atmosphere at 37 °C and 5% CO2 in RPMI 1640 supplemented with 10% FBS and 1% Penicillin–Streptomycin solution. Cells were seeded in 96-well plates at a density of 8 * 10^3 cells per well and then incubated with various concentrations of 5-HMF and DHMF (Additional file 2: Table S2) for 24 h, respectively. Subsequently, culture supernatant was removed. HCT-8 cells were incubated in 100 μL fresh basal medium and 10 μL CCK-8 solution at 37 ℃ for 2 h. The optical density (OD) value of each well was measured at 450 nm using spectrophotometer (Multiskan Go 1510, Thermo, US); A549 and SGC-7901 cells were incubated in 100 μL MTT solution (1 mg/mL) at 37 ℃ for 4 h. Subsequently, the liquid was removed and dissolved the formazan with 150 μL DMSO, and the OD value was measured at 490 nm. Cell viability was given in a percentage of the control group. All data repeated for three times.

[2] = Cytotoxicity test, CCK-8, 24 h; type: cell-based; conditions: human, HCT-8 cells
Description: as §1

[3] = test system: Female Sprague–Dawley rats; assay: Acute oral toxicity assessment (OECD 423)
Description: The temperature in the experimental animal room was 22 ± 1 °C and the relative humidity was 60% ± 5%, additionally, lighting conditions was 12-h light/dark cycle.
Twenty-four rats were randomly divided into five groups. Six rats were in the control group as well as the high-dose groups, and three rats were in the low-dose groups. Before the experiment, all rats needed to be […] overnight. Briefly, the control group received distilled water while experimental groups were orally treated with test compounds at a single dose of 300 mg/kg 5-HMF, 300 mg/kg DHMF, 2000 mg/kg 5-HMF, and 2000 mg/kg DHMF, respectively. The animals were monitored periodically during the first 24 h, especially the opening 30 min and 4 h, after drug oral treatment for any signs of toxicity. The rats were further observed for 14 days. Moreover, the body weight was measured at the first and last day. At the end of experiment, all rats were anaesthetized and their brains, hearts, lungs, livers, kidneys, and spleens were collected, weighed and observed macroscopically.

mice = test system: mice; parameters: method as in Bauer Marinovic et al. [2012]; conditions: dose up to 536 mg/kg, drinking water for 12 weeks, ref Bauer Marinovic et al. [2012]; cited from earlier work
[4] = test system: human skin fibroblast cells; parameters: method as in Frade et al. [2014]; conditions: ref Frade et al. [2014]; cited from earlier work
[5] = rats, 300 mg/kg single oral dose, after 14 days, n = 3
[6] = rats, 2000 mg/kg single oral dose, after 14 days, n = 6

OCc1ccc(CO)o1 [DHMF, 2,5-dihydroxymethylfuran]
IC50 at 24 h ([1]; A549 cells): 0.697 mM | IC50 at 24 h ([1]; SGC-7901 cells): 0.33 mM | IC50 at 24 h [2]: 26.6 mM | Organs index, Brain [3, 5]: 0.68 ± 0.09 g/100 g of body weight | Organs index, Heart [3, 5]: 0.32 ± 0.02 g/100 g of body weight | Organs index, Kidney [3, 5]: 0.75 ± 0.07 g/100 g of body weight | Organs index, Liver [3, 5]: 3.04 ± 0.26 g/100 g of body weight | Organs index, Lung [3, 5]: 0.47 ± 0.01 g/100 g of body weight | Organs index, Spleen [3, 5]: 0.22 ± 0.04 g/100 g of body weight | Organs index, Brain [3, 6]: 0.79 ± 0.07 g/100 g of body weight | Organs index, Heart [3, 6]: 0.32 ± 0.04 g/100 g of body weight | Organs index, Kidney [3, 6]: 0.75 ± 0.06 g/100 g of body weight | Organs index, Liver [3, 6]: 3.05 ± 0.17 g/100 g of body weight | Organs index, Lung [3, 6]: 0.49 ± 0.03 g/100 g of body weight | Organs index, Spleen [3, 6]: 0.22 ± 0.02 g/100 g of body weight | Abnormal behaviours ([3]; rats, single oral dose 300 mg/kg, first 4 h, n = 3): During the first 30 min, all rats became quitter and slightly weaker than the control, and returned to normal within 1 h | Abnormal behaviours ([3]; rats, single oral dose 2000 mg/kg, first 4 h, n = 6): In the first 30 min, all rats were more active than control, then showed lethargic and dilatoriness, yet returned to normal after 30 min | LD50 cut-off ([3]; rats, single oral dose, OECD 423 annex 2c, starting dose 300 mg/kg): greater than 2000 mg/kg B.W.

O=Cc1ccc(CO)o1 [5-HMF, 5-hydroxymethylfurfural]
Nephrotoxic effects (mice): mild nephrotoxic effects | Cytotoxicity [4]: none cytotoxic | IC50 at 24 h ([1]; A549 cells): 7.14 mM | IC50 at 24 h ([1]; SGC-7901 cells): 8.42 mM | IC50 at 24 h [2]: 9.94 mM | Abnormal behaviours ([3]; female, Sprague-Dawley, rat, in vivo, po, 300 mg/kg): During the first 30 min, all rats became quitter and slightly weaker than the control, and returned to normal within 1 h | Abnormal behaviours ([3]; female, Sprague-Dawley, rat, in vivo, po, 2000 mg/kg): Rat numbered 1 emerged convulsions, lethargy, convulsions, and limb weakness during the first 30 min, showed somnolence and decrease of animal heat in the next 30 min; others only behaved a quiet symptom, all rats returned to normal within 1 h | LD50 cut-off ([3]; rat, in vivo, po, 300 mg/kg): greater than 2000 mg/kg B.W. | Organs index, Brain ([3]; rat, in vivo, po, 300 mg/kg): 0.74 ± 0.02 g/100 g of body weight | Organs index, Heart ([3]; rat, in vivo, po, 300 mg/kg): 0.35 ± 0.03 g/100 g of body weight | Organs index, Kidney ([3]; rat, in vivo, po, 300 mg/kg): 0.75 ± 0.06 g/100 g of body weight | Organs index, Liver ([3]; rat, in vivo, po, 300 mg/kg): 3.06 ± 0.19 g/100 g of body weight | Organs index, Lung ([3]; rat, in vivo, po, 300 mg/kg): 0.52 ± 0.02 g/100 g of body weight | Organs index, Spleen ([3]; rat, in vivo, po, 300 mg/kg): 0.25 ± 0.01 g/100 g of body weight | Organs index, Brain ([3]; rat, in vivo, po, 2000 mg/kg): 0.74 ± 0.05 g/100 g of body weight | Organs index, Heart ([3]; rat, in vivo, po, 2000 mg/kg): 0.33 ± 0.02 g/100 g of body weight | Organs index, Kidney ([3]; rat, in vivo, po, 2000 mg/kg): 0.75 ± 0.07 g/100 g of body weight | Organs index, Liver ([3]; rat, in vivo, po, 2000 mg/kg): 2.83 ± 0.09 g/100 g of body weight | Organs index, Lung ([3]; rat, in vivo, po, 2000 mg/kg): 0.51 ± 0.04 g/100 g of body weight | Organs index, Spleen ([3]; rat, in vivo, po, 2000 mg/kg): 0.25 ± 0.06 g/100 g of body weight | Mortality ([3]; rats, single oral dose 300 or 2000 mg/kg, 14-day observation): none of the rats died
